Assay results taken from US20250018088A1, “COMPOSITIONS AND METHODS FOR REPAIRING DAMAGE TO SKELETAL MUSCLE” (MAYO FOUNDATION FOR MEDICAL EDUCATION AND RESEARCH, priority 2021, published 2025).

Assays:
[1] = tested on: Human Skeletal Muscle Myoblasts (HSMM); assay: Resveratrol inhibition of PEP-mediated HSMM proliferation; type: cell-based
Description: The mechanism of PEP-induced HSMM proliferation was interrogated using resveratrol (InvivoGen, San Diego, CA), an NF-κB inhibitor, in culture grown with 2.5×10^11 PEP exosomes/mL. The concentration of PEP exosomes was chosen both because of its optimal impact on the growth of cultured HSMMs and to match the empirically determined timed release PEP concentration from TISSEEL (Baxter International, Inc., Deerfield, IL) reconstituted with 1×10^12 PEP exosomes/mL. HSMM were plated on a 96-well plate at 10,000 cells/well overnight. Resveratrol was incubated at concentrations ranging from 50 μM to 500 μM for an hour before adding 2.5×10^11 PEP exosomes/mL to each well. Data is generated from live cell proliferation analysis (INCUCYTE, Essen BioScience, Inc., Ann Arbor, MI) by acquiring phase images (10× lens; five images/well in 96-well plate with three wells/condition). Western blotting for expression of NF-κB p65 at 72 hours post inhibition was quantified and normalized (IMAGE STUDIO software, LI-COR Biosciences, Inc., Lincoln, NE) using a total protein stain.

[2] = tested on: NF-κB p65; assay: Western blot of NF-κB p65 expression in HSMM cells; type: cell-based, human; conditions: increasing resveratrol 50 μM to 500 μM with 2.5×10^11 exosomes/mL PEP, 72 hours
Description: Western blotting for expression of exosome markers was conducted in two different manners: traditional and Li-Cor. In the traditional method, equal amounts of protein were loaded into each lane and transferred to a PVDF membrane. The membranes were blocked in 5% nonfat dried milk diluted in TBST and incubated with primary antibodies against CD63, CD9, and Flotillin (Table 1). HIRP-conjugated secondary antibodies were used to incubate the membranes and were developed with enhanced chemiluminescence (AERSHAM, GE Healthcare, Chicago, TL). Loading was standardized to a GAPDH loading control. In the Li-Cor digital fluorescence method (Li-Cor Biosciences, Inc., Lincoln, NE), equal amounts of protein were loaded into each lane and transferred to a nitrocellulose membrane. The membranes were blocked in Li-Cor TBS Blocking Buffer and incubated with primary antibodies against NF-κB p65, and PD-L1. Secondary antibodies at 680 nm and 800 nm were used to fluorescently image the membranes using an imaging system (Odyssey CLx, Li-Cor Biosciences, Inc., Lincoln, NE). Digital fluorescent intensity was determined by IMAGE STUDIO software (Li-Cor Biosciences, Inc., Lincoln, NE) and loading was standardized by total protein stain (Li-Cor Biosciences, Inc., Lincoln, NE) for whole lane protein digital fluorescence and analyzed by EMPIRIA STUDIO software (Li-Cor Biosciences, Inc., Lincoln, NE). […]

In the case of `Oc1ccc(C=Cc2cc(O)cc(O)c2)cc1` [resveratrol], the inhibition at 250 µM ([1]; Homo sapiens, Myoblast, 250 μM resveratrol, 2.5×10^11 exosomes/mL PEP, p<0.0001 vs PEP) is reported as about 50%, the inhibition at 500 µM ([1]; Homo sapiens, Myoblast, 500 μM resveratrol, 2.5×10^11 exosomes/mL PEP, p<0.0001 vs PEP) is reported as about 100% and the “inhibition of myoblast growth” value ([1]; low doses of resveratrol (e.g., 50 μM), with PEP) is reported as “not significantly inhibited”. The “NF-κB expression in PEP-treated HSMM following resveratrol treatment” value [2] was “dose dependent decrease”.
